From patent US4160845A, “Fungicidal N-(haloaliphaticthio)halovinylsulfonamides” (Chevron Research Company, priority 1976, dated 1979)

Tests used:
Type in all cases: cell-based
Conditions in all cases: paper strips on potato dextrose agar, 25° C., 24 hours
Rhizoctonia solani = experiment: Mycelial inhibition test, Rhizoctonia solani
Aspergillus niger = experiment: Mycelial inhibition test, Aspergillus niger
Fusarium moniloforma = experiment: Mycelial inhibition test, Fusarium moniloforma

SMILES | Mycelia Inhibition, micrograms/cm for 99% control, R (Rhizoctonia solani) | Mycelia Inhibition, micrograms/cm for 99% control, A (Aspergillus niger) | Mycelia Inhibition, micrograms/cm for 99% control, F (Fusarium moniloforma)
CN(SC(Cl)(Cl)Cl)S(=O)(=O)C(Cl)=C(Cl)Cl [Compound 1, N-methyl-N-(trichloromethylthio)trichlorovinylsulfonamide] | 0.18 micrograms/cm | 0.42 micrograms/cm | 1.7 micrograms/cm
CC(C)N(SC(Cl)(Cl)Cl)S(=O)(=O)C(Cl)=C(Cl)Cl [Compound 4] | 0.19 micrograms/cm | 0.68 micrograms/cm | > 1.7 micrograms/cm
O=S(=O)(C(Cl)=C(Cl)Cl)N(SC(Cl)(Cl)Cl)C1CCCCC1 [Compound 5] | 1.1 micrograms/cm | > 1.7 micrograms/cm | > 1.7 micrograms/cm
O=S(=O)(C(Cl)=C(Cl)Cl)N(SC(Cl)(Cl)Cl)c1ccccc1 [Compound 7, N-phenyl-N-(trichloromethylthio)trichlorovinylsulfonamide] | > 1.7 micrograms/cm | > 1.5 micrograms/cm | > 1.7 micrograms/cm
Cc1cccc(C)c1N(SC(Cl)(Cl)Cl)S(=O)(=O)C(Cl)=C(Cl)Cl [Compound 9] | 0.33 micrograms/cm | > 1.7 micrograms/cm | > 1.7 micrograms/cm
Cc1ccc(N(SC(Cl)(Cl)Cl)S(=O)(=O)C(Cl)=C(Cl)Cl)cc1 [Compound 11] | > 1.7 micrograms/cm | > 1.7 micrograms/cm | > 1.7 micrograms/cm
CNS(=O)(=O)C(Cl)=C(Cl)Cl [Compound 13] | > 1.7 micrograms/cm | > 1.7 micrograms/cm | > 1.7 micrograms/cm
CC(C)NS(=O)(=O)C(Cl)=C(Cl)Cl [Compound 14] | > 1.7 micrograms/cm | > 1.7 micrograms/cm | > 1.7 micrograms/cm
O=S(=O)(NC1CCCCC1)C(Cl)=C(Cl)Cl [Compound 15] | > 1.7 micrograms/cm | > 1.7 micrograms/cm | > 1.7 micrograms/cm
O=S(=O)(Nc1ccccc1)C(Cl)=C(Cl)Cl [Compound 16] | > 1.7 micrograms/cm | > 1.7 micrograms/cm | > 1.7 micrograms/cm
Cc1cccc(C)c1NS(=O)(=O)C(Cl)=C(Cl)Cl [Compound 17] | > 1.7 micrograms/cm | > 1.7 micrograms/cm | > 1.7 micrograms/cm
Cc1ccc(NS(=O)(=O)C(Cl)=C(Cl)Cl)cc1 [Compound 18] | > 1.7 micrograms/cm | > 1.7 micrograms/cm | > 1.7 micrograms/cm
O=S(=O)(Nc1ccc(Cl)cc1)C(Cl)=C(Cl)Cl [Compound 19, N-(p-chlorophenyl)trichlorovinylsulfonamide] | > 1.7 micrograms/cm | > 1.7 micrograms/cm | > 1.7 micrograms/cm
Cc1cc(Sc2ccccc2)ccc1NS(=O)(=O)C(Cl)=C(Cl)Cl [Compound 20] | > 1.7 micrograms/cm | > 1.7 micrograms/cm | > 1.7 micrograms/cm
O=S(=O)(Nc1ccc(Cl)c(Cl)c1)C(Cl)=C(Cl)Cl [Compound 21] | > 1.7 micrograms/cm | > 1.7 micrograms/cm | > 1.7 micrograms/cm
